Our source for the EC50 values is PubChem BioAssay AID1597 (NINDS Approved Drug Screening Program, 2009).

Records with an inconclusive call do not appear.

This test has as its system Drosophila SCA1 polyglutamine model, toxicity suppression. Kind of test: Reduction of SCA1 polyglutamine toxicity, EC50 from dose response in whole drosophila (AID 1597).
`CC(N)CCCC(C)(C)O` (centres undefined): the EC50 (in general, the concentration that produces a half-maximal response) is 50 nM.

Take `OCC(S)CS` (centres undefined): the 50% effective concentration (EC50) was 300 nM.

For the compound `C[C@@H]1CC2C3CCC4=CC(=O)C=C[C@]4(C)[C@@]3(F)[C@@H](O)C[C@]2(C)[C@@]1(O)C(=O)COP(=O)(O)O` (some centres undefined), the EC50 was 750 nM.

Regarding `C=C1C2CC[C@H]3[C@]4(C)C[C@H](OC5OC(CO)C(OS(=O)(=O)O)C(OS(=O)(=O)O)C5OC(=O)CC(C)C)C[C@@H](C(=O)O)[C@H]4CC[C@]3(C2)[C@H]1O` (some centres undefined), the EC50 was 225 nM.

For the compound `CCCCCCCCCCCCCCCC(=O)OC/C=C(C)/C=C/C=C(C)/C=C/C1=C(C)CCCC1(C)C`, the half-maximal effective concentration (EC50) was 275 nM.

With `NC(Cc1cc(I)c(Oc2ccc(O)c(I)c2)c(I)c1)C(=O)O` (centres undefined), the EC50 is 5000 nM.

On to `C[C@@H]1O[C@@H](O[C@H]2[C@H](Oc3cc(O)c4c(c3)O[C@H](c3ccc(O)cc3)CC4=O)O[C@H](CO)[C@@H](O)[C@@H]2O)[C@H](O)[C@H](O)[C@H]1O`, for which the 50% effective concentration (EC50) is 5000 nM.

With `C[N+](C)(C)CCOC(N)=O`, the EC50 was 3000 nM.

`CC(=O)OCC(=O)[C@H]1CCC2C3CCC4=CC(=O)CC[C@]4(C)C3CC[C@@]21C` (some centres undefined): the 50% effective concentration (EC50) is 3000 nM.

Regarding `C[N+](C)(C)CC(=O)[O-]`, the EC50 is 3000 nM.

For `CN1CCOC(c2ccccc2)c2ccccc2C1` (centres undefined), the EC50 was 50 nM.

In the case of `NS(=O)(=O)c1cc(C2(O)NC(=O)c3ccccc32)ccc1Cl` (centres undefined), the EC50 is 5000 nM.

As for `Cc1cc(C(C)(C)C)cc(C)c1CC1=NCCN1`, the concentration giving a half-maximal response (EC50) is 250 nM.

Regarding `N#C/C(=C\c1ccc(O)cc1)C(=O)O`, the EC50 is 50 nM.
